# Experimental data reported in PMC9250534, “Synthesis and direct assay of large macrocycle diversities by combinatorial late-stage modification at picomole scale” (Nature Communications, 2022).
# Biological target: MDM2 (Homo sapiens, UniProt Q00987)
# Assay: MDM2 binding screen of Libraries 3 and 4: displacement of fluorescent probe F-M8 at 750 nM macrocycle
# Conditions: Panel b, Library 3: 63 scaffolds combinatorially acylated with 15 carboxylic acids at 30 picomole scale; displacement of fluorescent peptide probe; macrocycle 750 nM
# Procedure, shortened: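 Competition with nutlin-3a was run using the fluorescein conjugate. Library members came from scaffolds reacted 6 h at room temperature with carboxylic acids (20 equiv.), HBTU and DABCO in DMSO. Quenching was overnight in Tris-Cl pH 7.4 buffer with 0.01% Tween20.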
# MDM2, sequence (Q00987 whole entry): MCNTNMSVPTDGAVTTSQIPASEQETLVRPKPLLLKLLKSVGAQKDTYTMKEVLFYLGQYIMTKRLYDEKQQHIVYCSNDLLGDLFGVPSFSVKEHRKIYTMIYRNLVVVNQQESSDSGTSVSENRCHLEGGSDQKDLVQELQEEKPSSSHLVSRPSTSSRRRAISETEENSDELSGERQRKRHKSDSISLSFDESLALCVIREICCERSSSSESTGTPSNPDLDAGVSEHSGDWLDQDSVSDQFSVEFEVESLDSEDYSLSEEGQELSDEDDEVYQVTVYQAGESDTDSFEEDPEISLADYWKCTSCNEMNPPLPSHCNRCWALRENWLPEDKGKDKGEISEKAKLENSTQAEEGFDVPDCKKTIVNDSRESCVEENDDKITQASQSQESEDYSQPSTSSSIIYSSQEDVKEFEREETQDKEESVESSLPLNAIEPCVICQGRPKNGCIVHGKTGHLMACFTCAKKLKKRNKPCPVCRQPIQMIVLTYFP
row,Structure (SMILES),fraction of fluorescent probe displaced
1,O=C(NC[C@@H]1NC(=O)[C@H]2CCCN(C2)C(=O)CCSSCCNC(=O)[C@@H](Cc2c[nH]c3ccccc23)NC1=O)c1ccc(Cl)s1 [X-Nip-Dap-D-Trp + Acid 14],-0.172
2,O=C(/C=C/c1ccncc1)NC[C@@H]1NC(=O)[C@H]2CCCN(C2)C(=O)CCSSCCNC(=O)[C@@H](Cc2c[nH]c3ccccc23)NC1=O [X-Nip-Dap-D-Trp + Acid 106],-0.015
3,O=C(NC[C@@H]1NC(=O)[C@H]2CCCN(C2)C(=O)CCSSCCNC(=O)[C@@H](Cc2c[nH]c3ccccc23)NC1=O)c1ccc2ccccc2c1 [X-Nip-Dap-D-Trp + Acid 107],0.044
4,O=C(/C=C/c1ccc(OCc2ccccc2)cc1)NC[C@@H]1NC(=O)[C@H]2CCCN(C2)C(=O)CCSSCCNC(=O)[C@@H](Cc2c[nH]c3ccccc23)NC1=O [X-Nip-Dap-D-Trp + Acid 110],0.00133
5,O=C(CCS(=O)(=O)c1ccccc1)NC[C@@H]1NC(=O)[C@H]2CCCN(C2)C(=O)CCSSCCNC(=O)[C@@H](Cc2c[nH]c3ccccc23)NC1=O [X-Nip-Dap-D-Trp + Acid 114],0.00133
6,Cn1cc(C[C@@H]2NC(=O)[C@H](CNC(=O)CCS(=O)(=O)c3ccccc3)NC(=O)[C@H]3CCCN(C3)C(=O)CCSSCCNC2=O)c2ccccc21 [X-Nip-Dap-Me-Trp + Acid 114],-0.00533
7,Cn1cc(C[C@@H]2NC(=O)[C@H](CNC(=O)C3COc4ccccc4O3)NC(=O)[C@H]3CCCN(C3)C(=O)CCSSCCNC2=O)c2ccccc21 (stereo partly drawn) [X-Nip-Dap-Me-Trp + Acid 115],0.028
8,CN1C(=O)[C@H](CNC(=O)c2ccc(Cl)cc2)NC(=O)[C@H]2CCCN(C2)C(=O)CCSSCCNC(=O)[C@@H]1Cc1c[nH]c2ccccc12 [X-Nip-Dap-NMe-Trp + Acid 25],0.00133
9,CN1C(=O)[C@H](CNC(=O)c2ccc3ccccc3c2)NC(=O)[C@H]2CCCN(C2)C(=O)CCSSCCNC(=O)[C@@H]1Cc1c[nH]c2ccccc12 [X-Nip-Dap-NMe-Trp + Acid 107],0.031
10,CN1C(=O)[C@H](CNC(=O)/C=C/c2ccc(OCc3ccccc3)cc2)NC(=O)[C@H]2CCCN(C2)C(=O)CCSSCCNC(=O)[C@@H]1Cc1c[nH]c2ccccc12 [X-Nip-Dap-NMe-Trp + Acid 110],0.015
11,CN1C(=O)[C@H](CNC(=O)c2cccc(Oc3ccccc3)c2)NC(=O)[C@H]2CCCN(C2)C(=O)CCSSCCNC(=O)[C@@H]1Cc1c[nH]c2ccccc12 [X-Nip-Dap-NMe-Trp + Acid 111],-0.019

# Now from value to molecule:
row,fraction of fluorescent probe displaced,Structure (SMILES)
1,-0.045,O=C(NC[C@@H]1NC(=O)[C@H]2CCCN(C2)C(=O)CCSSCCNC(=O)[C@@H](Cc2c[nH]c3ccccc23)NC1=O)c1ccc(Cl)cc1 [X-Nip-Dap-D-Trp + Acid 25]
2,0.021,O=C(/C=C/c1ccc2ccccc2c1)NC[C@@H]1NC(=O)[C@H]2CCCN(C2)C(=O)CCSSCCNC(=O)[C@@H](Cc2c[nH]c3ccccc23)NC1=O [X-Nip-Dap-D-Trp + Acid 112]
3,-0.00533,CC(Oc1cccc(Cl)c1)C(=O)NC[C@@H]1NC(=O)[C@H]2CCCN(C2)C(=O)CCSSCCNC(=O)[C@@H](Cc2c[nH]c3ccccc23)NC1=O (stereo partly drawn) [X-Nip-Dap-D-Trp + Acid 113]
4,0.028,Cn1cc(C[C@@H]2NC(=O)[C@H](CNC(=O)c3ccc(Cl)s3)NC(=O)[C@H]3CCCN(C3)C(=O)CCSSCCNC2=O)c2ccccc21 [X-Nip-Dap-Me-Trp + Acid 14]
5,0.076,Cn1cc(C[C@@H]2NC(=O)[C@H](CNC(=O)c3ccc4ccccc4c3)NC(=O)[C@H]3CCCN(C3)C(=O)CCSSCCNC2=O)c2ccccc21 [X-Nip-Dap-Me-Trp + Acid 107]
6,0.075,Cn1cc(C[C@@H]2NC(=O)[C@H](CNC(=O)/C=C/c3ccc(Cl)cc3)NC(=O)[C@H]3CCCN(C3)C(=O)CCSSCCNC2=O)c2ccccc21 [X-Nip-Dap-Me-Trp + Acid 108]
7,0.188,Cn1cc(C[C@@H]2NC(=O)[C@H](CNC(=O)/C=C/c3ccc4ccccc4c3)NC(=O)[C@H]3CCCN(C3)C(=O)CCSSCCNC2=O)c2ccccc21 [X-Nip-Dap-Me-Trp + Acid 112]
8,-0.021,CN1C(=O)[C@H](CNC(=O)/C=C/c2ccncc2)NC(=O)[C@H]2CCCN(C2)C(=O)CCSSCCNC(=O)[C@@H]1Cc1c[nH]c2ccccc12 [X-Nip-Dap-NMe-Trp + Acid 106]
9,0.00133,CN1C(=O)[C@H](CNC(=O)/C=C/c2ccc(Cl)cc2)NC(=O)[C@H]2CCCN(C2)C(=O)CCSSCCNC(=O)[C@@H]1Cc1c[nH]c2ccccc12 [X-Nip-Dap-NMe-Trp + Acid 108]
10,0.015,CN1C(=O)[C@H](CNC(=O)/C=C/c2ccc3ccccc3c2)NC(=O)[C@H]2CCCN(C2)C(=O)CCSSCCNC(=O)[C@@H]1Cc1c[nH]c2ccccc12 [X-Nip-Dap-NMe-Trp + Acid 112]

# Same assay, conditions: Panel c, Library 4: best nine scaffolds and 15 additional carboxylic acids; displacement of fluorescent probe
row,Structure (SMILES),fraction of fluorescent probe displaced
1,O=C(/C=C/c1cccc(Cl)c1)NC[C@@H]1NC(=O)[C@H]2CCCN(C2)C(=O)CCSSCCNC(=O)[C@H](Cc2c[nH]c3cc(Cl)ccc23)NC1=O [X-Nip-Dap-Cl-Trp + Acid 121],0.207
2,CC(C)c1ccc(/C=C/C(=O)NC[C@@H]2NC(=O)[C@H]3CCCN(C3)C(=O)CCSSCCNC(=O)[C@H](Cc3c[nH]c4cc(Cl)ccc34)NC2=O)cc1 [X-Nip-Dap-Cl-Trp + Acid 127],0.109
3,O=C(NC[C@@H]1NC(=O)[C@H]2CCCN(C2)C(=O)CCSSCCNC(=O)[C@H](Cc2c[nH]c3cc(Cl)ccc23)NC1=O)c1cnc2ccccc2n1 [X-Nip-Dap-Cl-Trp + Acid 130],0.044
4,Cn1cc(C[C@@H]2NC(=O)[C@H](CNC(=O)/C=C/c3ccc(F)cc3)NC(=O)[C@H]3CCCN(C3)C(=O)CCSSCCNC2=O)c2ccccc21 [X-Nip-Dap-Me-Trp + Acid 116],0.052
5,Cn1cc(C[C@@H]2NC(=O)[C@H](CNC(=O)/C=C/c3cccc(C(F)(F)F)c3)NC(=O)[C@H]3CCCN(C3)C(=O)CCSSCCNC2=O)c2ccccc21 [X-Nip-Dap-Me-Trp + Acid 122],0.101

# Now from value to molecule:
row,fraction of fluorescent probe displaced,Structure (SMILES)
1,0.166,O=C(/C=C/c1cccc(C(F)(F)F)c1)NC[C@@H]1NC(=O)[C@H]2CCCN(C2)C(=O)CCSSCCNC(=O)[C@H](Cc2c[nH]c3cc(Cl)ccc23)NC1=O [X-Nip-Dap-Cl-Trp + Acid 122]
2,0.085,Cn1cc(C[C@@H]2NC(=O)[C@H](CNC(=O)/C=C/c3ccc(Cl)c(Cl)c3)NC(=O)[C@H]3CCCN(C3)C(=O)CCSSCCNC2=O)c2ccccc21 [X-Nip-Dap-Me-Trp + Acid 119]
3,0.118,Cn1cc(C[C@@H]2NC(=O)[C@H](CNC(=O)/C=C/c3cccc(Cl)c3)NC(=O)[C@H]3CCCN(C3)C(=O)CCSSCCNC2=O)c2ccccc21 [X-Nip-Dap-Me-Trp + Acid 121]
4,0.028,CC(C)c1ccc(/C=C/C(=O)NC[C@@H]2NC(=O)[C@H]3CCCN(C3)C(=O)CCSSCCNC(=O)[C@H](Cc3cn(C)c4ccccc34)NC2=O)cc1 [X-Nip-Dap-Me-Trp + Acid 127]
5,-0.00464,Cn1cc(C[C@@H]2NC(=O)[C@H](CNC(=O)c3cnc4ccccc4n3)NC(=O)[C@H]3CCCN(C3)C(=O)CCSSCCNC2=O)c2ccccc21 [X-Nip-Dap-Me-Trp + Acid 130]
